Source: publication PMC5834903, “Phytochemical profiling and in vitro screening for anticholinesterase, antioxidant, antiglucosidase and neuroprotective effect of three traditional medicinal plants for Alzheimer’s Disease and Diabetes Mellitus dual therapy” (BMC Complementary and Alternative Medicine, 2018)
≈ marks a conversion by molar mass, not a printed value.

Target: T1, β–glucosidase
T1 construct: gene emulsin; sweet almond is only the usual commercial preparation
Assay: p-nitrophenol release, […] nm
Type: biochemical
Conditions: p-nitrophenyl β-D-glucopyranoside […], phosphate buffer pH […] °C

SMILES: O=C1O[C@H](CO)[C@@H](O)[C@H](O)[C@H]1O [D-Glucono-δ-lactone]
- IC50 Values (μg/mL) / β-Glc: 10.68 ± 0.005 µg/mL (≈ 60 µM)
